Source: paper PMC6105804, “In Vitro and In Vivo Evaluation of APX001A/APX001 and Other Gwt1 Inhibitors against Cryptococcus” (Antimicrobial Agents and Chemotherapy, 2018)
Several values for one entry are separate records, joined by “and”; a condition that tells them apart may be missing. Equal values may be shown once.

Legend:
C. neoformans strain H99 [1] = test: Murine model of cryptococcal meningitis, APX001 alone and with FLC (no ABT); type: in vivo, Cryptococcus neoformans
Method: The efficacies of APX001 and FLC were evaluated in a well-established mouse CM model ([34]). Since Cryptococcus infections can be hematogenously disseminated to other organs, the numbers of CFU in both lung and brain tissue were evaluated. Male CD-1 mice were infected with 5.9 × 10^4 CFU of C. neoformans strain H99 via lateral tail vein injection. Mice were assigned to four groups (n = 10), consisting of (i) treatment with APX001, (ii) treatment with APX001 plus FLC, (iii) treatment with FLC, or (iv) no treatment as a control. Treatment was initiated within 1 h after infection. APX001 was administered by oral gavage at a dose of 390 mg/kg thrice daily (TID), with each dose being administered roughly 8 h apart. […] FLC (2 mg/ml; Sagent Pharmaceuticals, Schaumburg, IL) was administered at a dose of 80 mg/kg/day intraperitoneally (i.p.).
Brain and lung burdens in mice were measured at 7 days postinfection with C. neoformans H99. Male CD-1 mice were infected with 5.9 × 10^4 CFU of C. neoformans strain H99 via the lateral tail vein. Treatment was initiated at about 1 h postinfection and continued for 7 days. APX001 was administered by oral gavage at a dose of 390 mg/kg thrice daily, with each dose being administered roughly 8 h apart. FLC (2 mg/ml; Sagent Pharmaceuticals, Schaumburg, IL) was administered at a dose of 80 mg/kg/day i.p. once daily. Fungal burden data were log10 transformed and evaluated using Kruskal-Wallis tests with Dunn's multiple-comparison test for post hoc analysis (Prism software, v5; GraphPad Software, Inc., San Diego, CA). A P value of ≤0.05 was considered statistically significant (*, P ≤ 0.05; **, P ≤ 0.01; ***, P ≤ 0.001). The 95% confidence interval (CI) is presented.
(§1) C. neoformans strain H99 was grown in yeast extract-peptone-dextrose broth at 30°C on a shaker (220 rpm) for 24 h, centrifuged (1,980 relative centrifugal force), and washed twice in phosphate-buffered saline (PBS), resuspended in PBS, and quantified by hemacytometric count. Male CD-1 mice were infected with ∼5 × 10^4 CFU per mouse via lateral tail vein injection of 100 μl. Mice were weighed, and treatment was begun within 1 h after infection. Treatments were administered daily for 7 days. Mice were weighed daily and observed for acute and chronic adverse symptoms. Mice were sacrificed on day 8, and the brain and left lung were homogenized and cultured for quantitative determination of the tissue burden (number of CFU per gram of tissue). Tissues were homogenized for 25 s in 1 ml phosphate-buffered saline using two 6.5-mm steel beads and a Mini-Beadbeater 16 apparatus (Biospec Products, Inc., Bartlesville, OK) and serially diluted in 10-fold steps. Aliquots (100 μl) of homogenate were plated and incubated for 3 to 7 days at 37°C. Fungal burden data were log10 transformed and evaluated using Kruskal-Wallis tests with Dunn's multiple-comparison test for post hoc analysis (Prism software, v5; GraphPad Software, Inc., San Diego, CA). A P value of ≤0.05 was considered statistically significant.

C. neoformans strain H99 [2] = test: Murine cryptococcal meningitis model with ABT pretreatment (preliminary experiment); type: in vivo, Cryptococcus neoformans
Method: In a preliminary experiment, the efficacies of APX001, APX2096, and APX2097 were evaluated in the disseminated model of CM (n = 5 mice/cohort). ABT at 100 mg/kg was administered orally to male CD-1 mice 2 h prior to APX compound administration. Mice were injected with 6.9 × 10^4 CFU of C. neoformans strain H99 per mouse via the lateral tail vein at time zero. Treatment with each prodrug was initiated at about 1 h postinfection by i.p. administration and continued daily for 7 days, with 100-mg/kg ABT being administered orally 2 h prior to each APX compound dose.
(§2) ABT at 100 mg/kg was administered orally to male CD-1 mice at 2 h prior to each APX compound dose. Mice were injected with 6.9 × 10^4 CFU of C. neoformans strain H99 per mouse via the lateral tail vein at time zero. Treatment with the APX compound was initiated at about 1 h postinfection by i.p. administration and continued for 7 days, with 100-mg/kg ABT being administered orally 2 h prior to each APX compound dose. […] Fungal burden data were log10 transformed and evaluated using Kruskal-Wallis tests with Dunn's multiple-comparison test for post hoc analysis (Prism software, v5; GraphPad Software, Inc., San Diego, CA). A P value of ≤0.05 was considered statistically significant (*, P ≤ 0.05; **, P ≤ 0.01). The 95% confidence interval (CI) is presented.
as §1

[3] = Acute toxicity and survival observed in the CM model with ABT; type: in vivo, mouse; conditions: n = 5 mice/cohort; 7 days i.p. + ABT
Method: as §2, §1

[4] = Text: For pharmacokinetic and efficacy studies, the prodrugs APX001, APX2096, APX2097, and APX2104 (Amplyx Pharmaceuticals) were used. […] The prodrugs APX2096, APX2097, and APX2104 were formulated similarly to enable oral and i.p. dosing of compounds for pharmacokinetic and efficacy studies.
[5] = design: method as in ref 11, 12 = [11]; 11. Hodges MR , Ople E , Shaw KJ , Mansbach RS , van Marle S , van Hoogdalem E , Kramer W , Wedel P 2017 Phase 1 study to assess safety, tolerability and pharmacokinetics of single and multiple oral d || [12]; 12. Hodges MR , Ople E , Shaw KJ , Mansbach RS , van Marle S , van Hoogdalem E , Wedel P , Kramer W 2017 First-in-human study to assess safety, tolerability and pharmacokinetics of APX001 administered; conditions: cited from earlier work
C. albicans = tested on: C. albicans; design: method as in ref 23 = [23]; 23. Zhao Y , Lee M , Lee A , Paderu P , Park S , Perlin DS 2018 APX001 is effective against echinocandin and multi-drug resistant Candida isolates . Abstr 28th ECCMID , Madrid, Spain .; conditions: after ABT administration, after 48 h; cited from earlier work
[6] = APX001 390 mg/kg TID oral plus FLC 80 mg/kg/day i.p., 7 days
[7] = monotherapy 7 days, APX001 390 mg/kg TID oral gavage, FLC 80 mg/kg/day i.p., male CD-1 mice
[8] = 80 mg/kg in the presence of ABT
[9] = 85 mg/kg QD i.p. + ABT 100 mg/kg p.o., 7 days

Nc1c(-c2cc(Cc3ccc(COc4ccccn4)cc3)no2)ccc[n+]1COP(=O)([O-])O [APX001]
reduction in brain fungal burden vs untreated control, combination of APX001 and FLC (C. neoformans strain H99 [1]; [6]): 3.52 log10 CFU/g and 3.51 log10 CFU/g
reduction in lung fungal burden vs untreated control, combined therapy (C. neoformans strain H99 [1]; [6]): 1.84 log10 CFU/g
reduction in brain fungal burden vs untreated control (C. neoformans strain H99 [1]; [7]): 0.78 log10 CFU/g
reduction in lung fungal burden vs untreated control (C. neoformans strain H99 [1]; [7]): 1.50 log10 CFU/g and 1.5 log10 CFU/g
reduction in lung fungal burden (C. neoformans strain H99 [2]; 34 mg/kg QD i.p. + ABT 100 mg/kg p.o., 7 days): neither the 34-mg/kg nor the 85-mg/kg dose of APX001 achieved a statistically significant reduction
reduction in brain fungal burden (C. neoformans strain H99 [2]; [8]): 0.85 log10 CFU/g
reduction in lung fungal burden (C. neoformans strain H99 [2]; [8]): 0.9 log10 CFU/g
reduction in brain fungal burden (C. neoformans strain H99 [2]; [9]): 0.85 log10 CFU/g
reduction in lung fungal burden (C. neoformans strain H99 [2]; [9]): neither the 34-mg/kg nor the 85-mg/kg dose of APX001 achieved a statistically significant reduction
final numbers of surviving mice [3]: 5
solubility in water [4]: soluble in water
bioavailability ([5]; phase 1 clinical trials): > 90%
half-life in humans ([5]; phase 1 studies in healthy volunteers): 60 h
reduction of C. albicans kidney burdens (C. albicans): 6.0 ± 0.1 log10 CFU/g kidney tissue
